Legend:
Type in all cases: in vivo
Chenopodium = assay: Pre-emergence test/greenhouse; settings: after three weeks
Experimental: (§1) To produce a suitable preparation of active compound, 1 part by weight of active compound is mixed with the stated amount of solvent, the stated amount of emulsifier is added and the concentrate is diluted with water to the desired concentration.
(§2) Seeds of the test plants are sown in normal soil. After about 24 hours, the soil is sprayed with the preparation of the active compound. Advantageously, the amount of water per unit area is kept constant. The active compound concentration in the preparation is not important, only the active compound application rate per unit area is critical.
(§3) After three weeks, the degree of damage to the plants is rated in % damage in comparison with the development of the untreated control.
(§4) The figures denote: • 0%=no effect (like untreated control) • 100%=total destruction

Alopecurus [1] = assay: Pre-emergence test/greenhouse; settings: after three weeks
Experimental: as §1, §2, §3, §4

Lolium = assay: Pre-emergence test/greenhouse; settings: after three weeks
Experimental: as §1, §2, §3, §4

Stellaria = assay: Pre-emergence test/greenhouse; settings: after three weeks
Experimental: as §1, §2, §3, §4

Amaranthus = assay: Pre-emergence test/greenhouse; settings: 60 g of ai./ha, after three weeks
Experimental: as §1, §2, §3, §4

Sorghum = assay: Pre-emergence test/greenhouse; settings: after three weeks
Experimental: as §1, §2, §3, §4

weeds [2] = assay: Pre-emergence test (overall statement); settings: application rates between 30 g and 125 g of a.i. per hectare
Experimental: as §1, §2, §3, §4

Echinochloa = assay: Post-emergence test/greenhouse; settings: application rate 30 g of ai./ha, rated after three weeks vs untreated control
Experimental: as §1
(§5) Test plants which have a height of 5-15 cm are sprayed with the preparation of the active compound in such a way as to apply the particular amounts of active compound desired per unit area. The concentration of the spray liquor is chosen so that the amounts of active compound desired in each case are applied in 1000 l of water/ha.
as §3, §4

Matricaria = assay: Post-emergence test/greenhouse; settings: application rate 30 g of ai./ha, rated after three weeks vs untreated control
Experimental: as §1, §5, §3, §4

Abutilon = assay: Post-emergence test/greenhouse; settings: application rate 30 g of ai./ha, rated after three weeks vs untreated control
Experimental: as §1, §5, §3, §4

Alopecurus [3] = assay: Post-emergence test/greenhouse; settings: application rate 30 g of ai./ha, rated after three weeks vs untreated control
Experimental: as §1, §5, §3, §4

weeds [4] = assay: Post-emergence test/greenhouse
Experimental: as §1, §5, §3, §4

Structure (SMILES)	Chenopodium, % damage (Chenopodium; 60 g of ai./ha) [%]	Alopecurus, % damage (Alopecurus [1]; 60 g of ai./ha) [%]	Lolium, % damage (Lolium; 60 g of ai./ha) [%]	Steltaria, % damage (Stellaria; 60 g of ai./ha) [%]	Amaranthus, % damage (Amaranthus) [%]	Sorghum, % damage (Sorghum; 60 g of ai./ha) [%]	activity against weeds (weeds [2])	degree of damage to the plants, Echinochloa (Echinochloa) [%]	degree of damage to the plants, Matricaria (Matricaria) [%]	degree of damage to the plants, Abutilon (Abutilon) [%]	degree of damage to the plants, Alopecurus (Alopecurus [3]) [%]	activity against weeds (weeds [4])	Chenopodium, % damage (Chenopodium; 30 g of ai./ha) [%]	Alopecurus, % damage (Alopecurus [1]; 30 g of ai./ha) [%]	Lolium, % damage (Lolium; 30 g of ai./ha) [%]	Steltaria, % damage (Stellaria; 30 g of ai./ha) [%]	Sorghum, % damage (Sorghum; 30 g of ai./ha) [%]
CCOc1cccc(C(F)(F)F)c1S(=O)(=O)NC(=O)Nc1nc(C)nc(OC)n1 [Example 4]	100	100	100	95	100	100	very strong activity against weeds	90	100	100	90	very strong activity against weeds	–	–	–	–	–
COc1nc(C)nc(NC(=O)NS(=O)(=O)c2c(OC)cccc2C(F)(F)F)n1 [Example 5]	100	100	100	100	100	100	very strong activity against weeds	100	100	100	80	very strong activity against weeds	–	–	–	–	–
COc1nc(NC(=O)NS(=O)(=O)c2c(OC)cccc2C(F)(F)F)nc(OC)n1 [Example 6]	100	100	100	100	100	100	very strong activity against weeds	100	100	90	60	very strong activity against weeds	–	–	–	–	–
CCOc1cccc(C(F)(F)F)c1S(=O)(=O)NC(=O)Nc1nc(C)cc(C)n1 [Example 8]	–	–	–	–	–	–	very strong activity against weeds	90	100	90	80	very strong activity against weeds	80	100	100	90	100
CCCOc1cccc(C(F)(F)F)c1S(=O)(=O)NC(=O)Nc1nc(OC)nc(OC)n1 [Example 10]	100	100	100	100	100	100	very strong activity against weeds	–	–	–	–	–	–	–	–	–	–
CCCOc1cccc(C(F)(F)F)c1S(=O)(=O)NC(=O)Nc1nc(C)cc(C)n1 [Example 11]	100	100	100	95	100	100	very strong activity against weeds	–	–	–	–	–	–	–	–	–	–
COc1nc(NC(=O)NS(=O)(=O)c2c(OC(C)C)cccc2C(F)(F)F)nc(OC)n1 [Example 13]	100	100	100	100	100	100	very strong activity against weeds	–	–	–	–	–	–	–	–	–	–
Cc1cc(C)nc(NC(=O)NS(=O)(=O)c2c(OC(C)C)cccc2C(F)(F)F)n1 [Example 14]	–	–	–	–	–	–	very strong activity against weeds	–	–	–	–	–	95	100	100	95	95
CCOc1cccc(C(F)(F)F)c1S(=O)(=O)NC(=O)Nc1nc(Cl)cc(OC)n1 [Example 16]	–	–	–	–	–	–	very strong activity against weeds	70	100	100	70	very strong activity against weeds	100	100	–	90	80
CCCOc1cccc(C(F)(F)F)c1S(=O)(=O)NC(=O)Nc1nc(Cl)cc(OC)n1 [Example 17]	–	–	–	–	–	–	–	70	95	90	–	very strong activity against weeds	–	–	–	–	–
